The source of these data is article PMC12018053 (Biochemistry and Biophysics Reports, 2025).

The target of series [1] is T1, 5-HT1A (Homo sapiens, UniProt P08908).
T1 sequence (P08908 1-422): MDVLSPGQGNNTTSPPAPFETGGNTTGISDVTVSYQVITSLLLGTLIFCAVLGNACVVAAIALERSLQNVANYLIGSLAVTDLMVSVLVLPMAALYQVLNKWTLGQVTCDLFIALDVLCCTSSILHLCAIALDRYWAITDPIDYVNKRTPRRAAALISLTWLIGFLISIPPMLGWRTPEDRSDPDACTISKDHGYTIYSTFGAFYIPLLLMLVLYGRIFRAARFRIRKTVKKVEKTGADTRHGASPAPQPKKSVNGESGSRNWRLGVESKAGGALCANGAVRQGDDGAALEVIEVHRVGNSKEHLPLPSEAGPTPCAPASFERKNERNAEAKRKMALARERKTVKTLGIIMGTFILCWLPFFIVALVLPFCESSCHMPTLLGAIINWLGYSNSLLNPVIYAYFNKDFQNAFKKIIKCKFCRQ
The series can be described thus: NIMH PDSP primary binding screen, 5-HT1A. As to conditions: read-out: Inhibition (%) 5-HT1A.

Series [2] concerns the target T2, 5-HT2C (Homo sapiens, UniProt P28335).
T2 sequence (P28335 33-458): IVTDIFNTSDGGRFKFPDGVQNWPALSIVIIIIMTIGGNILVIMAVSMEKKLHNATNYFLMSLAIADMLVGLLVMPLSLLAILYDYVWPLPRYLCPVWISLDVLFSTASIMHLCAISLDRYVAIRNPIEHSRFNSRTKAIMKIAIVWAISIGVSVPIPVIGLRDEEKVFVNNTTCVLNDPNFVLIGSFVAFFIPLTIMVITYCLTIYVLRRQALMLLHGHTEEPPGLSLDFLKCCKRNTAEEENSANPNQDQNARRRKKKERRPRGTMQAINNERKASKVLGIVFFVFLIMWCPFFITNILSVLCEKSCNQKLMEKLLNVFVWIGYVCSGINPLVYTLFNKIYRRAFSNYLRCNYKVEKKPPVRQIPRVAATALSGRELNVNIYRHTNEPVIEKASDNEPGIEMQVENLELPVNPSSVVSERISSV
The series can be described thus: NIMH PDSP primary binding screen, 5-HT2C. To be noted: read-out: Inhibition (%) 5-HT2C.

A short description of series [3]: physchem. To be noted: sodium phosphate buffer, 24 °C, pH 7.4, aqueous buffer, kinetic from dmso stock.
The target in series [4] is Mu opioid (MOR) (Homo sapiens, UniProt P35372). In words: NIMH PDSP primary binding screen, MOR. To be noted: read-out: Inhibition (%) Mu opioid (MOR).
Series [5] has as its target Kappa opioid (KOR) (Homo sapiens, UniProt P41145). The series can be described thus: NIMH PDSP primary binding screen, KOR. To be noted: read-out: Inhibition (%) Kappa opioid (KOR).
Series [6] addresses 5-HT2A (Homo sapiens, UniProt P28223). The series can be described thus: NIMH PDSP primary binding screen, 5-HT2A. As to conditions: read-out: Inhibition (%) 5-HT2A.
In series [7] the target is T3, Human sEH (Homo sapiens, UniProt P34913).
T3 sequence (P34913 1-555): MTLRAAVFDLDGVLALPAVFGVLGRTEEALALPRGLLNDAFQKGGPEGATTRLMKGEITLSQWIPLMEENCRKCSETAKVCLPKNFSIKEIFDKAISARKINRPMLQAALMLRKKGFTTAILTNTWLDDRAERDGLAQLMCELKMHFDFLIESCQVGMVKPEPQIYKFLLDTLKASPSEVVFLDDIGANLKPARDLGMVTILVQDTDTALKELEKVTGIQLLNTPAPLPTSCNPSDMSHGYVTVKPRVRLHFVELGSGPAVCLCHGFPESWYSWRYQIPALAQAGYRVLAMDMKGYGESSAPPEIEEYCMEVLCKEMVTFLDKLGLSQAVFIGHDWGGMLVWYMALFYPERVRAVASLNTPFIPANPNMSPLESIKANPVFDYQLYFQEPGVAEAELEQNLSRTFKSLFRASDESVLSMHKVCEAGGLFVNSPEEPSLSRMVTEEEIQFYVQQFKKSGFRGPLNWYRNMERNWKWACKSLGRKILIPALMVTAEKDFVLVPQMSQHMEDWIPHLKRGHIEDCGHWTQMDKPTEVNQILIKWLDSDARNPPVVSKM
In words: sEH fluorescent-based inhibition assay. It is filed as biochemical.

The target in series [8] is T4, Mouse sEH (Mus musculus, UniProt P34914).
T4 sequence (P34914 1-554): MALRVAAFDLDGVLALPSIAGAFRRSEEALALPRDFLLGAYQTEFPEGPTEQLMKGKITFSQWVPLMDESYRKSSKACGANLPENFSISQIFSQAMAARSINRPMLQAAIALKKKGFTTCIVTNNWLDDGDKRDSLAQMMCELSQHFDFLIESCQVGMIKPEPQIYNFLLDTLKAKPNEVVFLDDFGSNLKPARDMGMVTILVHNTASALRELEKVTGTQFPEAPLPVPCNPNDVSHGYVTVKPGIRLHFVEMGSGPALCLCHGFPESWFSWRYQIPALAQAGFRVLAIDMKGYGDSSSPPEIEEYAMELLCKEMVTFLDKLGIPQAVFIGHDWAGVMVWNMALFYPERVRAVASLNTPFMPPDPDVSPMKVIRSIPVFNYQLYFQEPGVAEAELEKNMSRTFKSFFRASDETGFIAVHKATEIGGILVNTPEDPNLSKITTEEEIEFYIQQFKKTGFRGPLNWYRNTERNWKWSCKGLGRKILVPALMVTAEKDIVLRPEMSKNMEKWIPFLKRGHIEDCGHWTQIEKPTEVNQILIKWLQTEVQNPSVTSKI
In words: sEH fluorescent-based inhibition assay. The format is biochemical.

Series [9] can be described thus: Microsomal stability assay in human liver microsomes. As to conditions: pH 7.4. The format is in vitro ADME.
The target of series [10] is Delta opioid (DOR) (Homo sapiens, UniProt P41143). The series can be described thus: NIMH PDSP primary binding screen, DOR. As to conditions: read-out: Inhibition (%) Delta opioid (DOR).
In series [11] the target is 5-HT1D (Homo sapiens, UniProt P28221). The series can be described thus: NIMH PDSP primary binding screen, 5-HT1D. To be noted: read-out: Inhibition (%) 5-HT1D.

Each structure is given as a SMILES string. Values after ≈ are worked out from the molar mass of the structure shown.

Chain of Kappa opioid (KOR) (P41145 whole entry): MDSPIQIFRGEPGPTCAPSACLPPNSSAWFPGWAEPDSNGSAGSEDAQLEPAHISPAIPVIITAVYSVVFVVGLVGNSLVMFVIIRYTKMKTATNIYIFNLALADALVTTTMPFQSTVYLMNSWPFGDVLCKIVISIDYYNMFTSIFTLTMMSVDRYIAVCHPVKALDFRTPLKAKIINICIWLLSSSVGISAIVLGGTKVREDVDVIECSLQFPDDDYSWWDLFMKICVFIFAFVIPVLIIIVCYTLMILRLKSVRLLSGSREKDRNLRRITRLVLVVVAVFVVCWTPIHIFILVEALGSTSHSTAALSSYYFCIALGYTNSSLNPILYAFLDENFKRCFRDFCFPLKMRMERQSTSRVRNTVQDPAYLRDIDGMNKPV
Chain of Delta opioid (DOR) (P41143 whole entry): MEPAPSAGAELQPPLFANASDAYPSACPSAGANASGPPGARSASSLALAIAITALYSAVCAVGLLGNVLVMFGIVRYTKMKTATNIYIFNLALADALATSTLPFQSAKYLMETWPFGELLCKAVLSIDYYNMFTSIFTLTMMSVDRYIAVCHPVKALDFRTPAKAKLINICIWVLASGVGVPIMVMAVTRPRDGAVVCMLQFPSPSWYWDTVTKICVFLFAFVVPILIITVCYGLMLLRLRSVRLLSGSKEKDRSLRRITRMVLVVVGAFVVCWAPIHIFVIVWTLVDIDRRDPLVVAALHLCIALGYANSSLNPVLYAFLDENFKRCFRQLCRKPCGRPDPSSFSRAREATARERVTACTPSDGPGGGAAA
Chain of 5-HT1D (P28221 whole entry, species assumed): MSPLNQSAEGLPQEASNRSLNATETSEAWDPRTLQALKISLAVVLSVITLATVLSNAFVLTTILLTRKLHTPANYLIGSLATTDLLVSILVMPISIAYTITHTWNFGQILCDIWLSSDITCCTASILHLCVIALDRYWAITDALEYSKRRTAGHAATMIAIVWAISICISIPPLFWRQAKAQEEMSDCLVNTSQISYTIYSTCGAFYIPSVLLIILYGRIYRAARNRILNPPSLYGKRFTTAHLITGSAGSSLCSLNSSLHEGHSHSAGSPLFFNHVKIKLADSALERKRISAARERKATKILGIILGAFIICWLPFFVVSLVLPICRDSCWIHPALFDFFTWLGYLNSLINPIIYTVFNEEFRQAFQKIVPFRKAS
Chain of Mu opioid (MOR) (P35372 whole entry): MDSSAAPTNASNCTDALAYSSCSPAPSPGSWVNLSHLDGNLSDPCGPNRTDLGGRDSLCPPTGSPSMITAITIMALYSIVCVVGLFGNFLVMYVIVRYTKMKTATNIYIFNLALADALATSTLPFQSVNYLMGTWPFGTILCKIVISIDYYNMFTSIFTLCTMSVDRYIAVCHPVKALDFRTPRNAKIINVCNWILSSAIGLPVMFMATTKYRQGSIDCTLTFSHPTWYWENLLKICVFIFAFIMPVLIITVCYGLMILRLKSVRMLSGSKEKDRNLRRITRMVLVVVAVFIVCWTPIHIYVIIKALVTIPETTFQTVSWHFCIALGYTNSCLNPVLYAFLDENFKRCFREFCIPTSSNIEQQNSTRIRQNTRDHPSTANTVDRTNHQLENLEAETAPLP
Chain of 5-HT2A (P28223 whole entry, species assumed): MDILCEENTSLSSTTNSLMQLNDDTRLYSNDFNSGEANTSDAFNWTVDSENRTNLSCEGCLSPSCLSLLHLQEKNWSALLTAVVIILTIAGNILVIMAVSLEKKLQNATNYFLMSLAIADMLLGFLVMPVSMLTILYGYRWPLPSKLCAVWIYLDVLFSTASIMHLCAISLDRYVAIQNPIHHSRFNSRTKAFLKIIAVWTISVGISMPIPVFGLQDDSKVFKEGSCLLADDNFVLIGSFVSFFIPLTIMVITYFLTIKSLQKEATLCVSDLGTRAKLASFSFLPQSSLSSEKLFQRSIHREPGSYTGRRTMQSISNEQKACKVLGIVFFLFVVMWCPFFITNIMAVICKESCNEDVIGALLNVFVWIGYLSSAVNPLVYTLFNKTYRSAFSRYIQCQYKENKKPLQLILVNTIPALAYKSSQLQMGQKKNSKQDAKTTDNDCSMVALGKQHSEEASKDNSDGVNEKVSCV

Consider `O=C(Nc1ccc(-c2ccc3ccncc3c2)cc1)C1CCN(S(=O)(=O)c2ccccc2Cl)CC1` [Compound 4f, 1-((2-chlorophenyl)sulfonyl)-N-(4-(isoquinolin-7-yl)phenyl)piperidine-4-carboxamide], for which the inhibition at 10 µM in series [1] is 4.83 ± 2.43%; in [2], 21.5 ± 4.63%; in [4], 10.6 ± 4.75%; in [5] it was -18.1 ± 2.56%; in series [6] it was 17.4 ± 4.69%; in [10], 3.1 ± 1.53%. In addition, the inhibition at 10 µM in series [11] came to 40.9 ± 11.2%. The compound further gave a solubility in series [3] of 54.4 µM (≈ 27.5 µg/mL). Moreover, the IC50 in [7] was 2.2 nM; in series [8], 107 nM. Moreover, in series [9], the half-life at 1 µM was 58 min. In series [9], this compound came in with an intrinsic clearance (microsomal CLint) at 1 µM of 23.7 µL/min/mg.
